Laboratory results as given in patent publication US8071565B2 (Novartis AG, priority 2006, dated 2011).
Structures can show the parent of a compound that is named as a salt.

Biological target: adenosine A2A receptor (Homo sapiens, UniProt P29274)
Test: adenosine A2A receptor agonist assay (method of Murphree et al, Mol Pharmacol 61, 455-462, 2002)
Assay type: binding
Conditions: method of L. J. Murphree et al
From the text: Compounds of formula (I) and their pharmaceutically acceptable salts are useful as pharmaceuticals. In particular, they activate the adenosine A2A receptor, i.e., they act as A2A receptor agonists.

adenosine A2A receptor, sequence (P29274 whole entry): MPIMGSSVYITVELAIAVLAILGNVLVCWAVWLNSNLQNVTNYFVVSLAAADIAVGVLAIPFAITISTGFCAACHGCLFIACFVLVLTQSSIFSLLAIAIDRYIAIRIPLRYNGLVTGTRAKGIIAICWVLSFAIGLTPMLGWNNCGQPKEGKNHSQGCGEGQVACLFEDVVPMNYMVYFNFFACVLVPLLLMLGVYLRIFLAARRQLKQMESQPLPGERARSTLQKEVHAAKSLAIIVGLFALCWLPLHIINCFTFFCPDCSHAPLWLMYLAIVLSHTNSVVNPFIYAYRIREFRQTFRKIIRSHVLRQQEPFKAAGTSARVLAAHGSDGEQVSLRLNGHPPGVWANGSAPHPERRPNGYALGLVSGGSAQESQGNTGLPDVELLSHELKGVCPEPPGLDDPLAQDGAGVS

| Structure (SMILES) | Ki [nM] |
| --- | --- |
| C[C@@H]1NC(=O)N([C@H]2C[C@@H](n3cnc4c(NCC(c5ccccc5)c5ccccc5)nc(N5CC[C@@H](NC(=O)Nc6cccnc6)C5)nc43)[C@H](O)[C@@H]2O)C1=O [Example C1] | 89 |
| O=C(Nc1cccnc1)N[C@@H]1CCN(c2nc(NCC(c3ccccc3)c3ccccc3)c3ncn([C@@H]4C[C@H](N5C(=O)CNC5=O)[C@@H](O)[C@H]4O)c3n2)C1 [Example C2, 1-{(R)-1-[9-[(1R,2S,3R,4S)-4-(2,5-Dioxo-imidazolidin-1-yl)-2,3-dihydroxy-cyclopentyl]-6-(2,2-diphenyl-ethylamino)-9H-purin-2-yl]-pyrrolidin-3-yl}-3-pyridin-3-yl-urea trifluoroacetate] | 33 |
